Test results reported in patent US20240189315A1, “Cyclic Pyridine Derivatives as cGAS Inhibitors” (Boehringer Ingelheim International GmbH, priority 2022, published 2024).

What was measured:
[1] = target: cellular cGAS activity in dsDNA-stimulated human whole blood (Homo sapiens (Human), UniProt Q8N884); assay: Human whole blood assay (hWB IC50): IFNα2a production after dsDNA transfection; format: cell-based; conditions: Table 1; dsDNA-stimulated human whole blood;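 further: IFNα-2a in plasma measured by MSD electrochemiluminescence immunoassay after 22 h at 37 °C, 8-point dilution series from 10 µM top concentration, DMSO wells as controls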
Chain of cellular cGAS activity in dsDNA-stimulated human whole blood (Q8N884 whole entry): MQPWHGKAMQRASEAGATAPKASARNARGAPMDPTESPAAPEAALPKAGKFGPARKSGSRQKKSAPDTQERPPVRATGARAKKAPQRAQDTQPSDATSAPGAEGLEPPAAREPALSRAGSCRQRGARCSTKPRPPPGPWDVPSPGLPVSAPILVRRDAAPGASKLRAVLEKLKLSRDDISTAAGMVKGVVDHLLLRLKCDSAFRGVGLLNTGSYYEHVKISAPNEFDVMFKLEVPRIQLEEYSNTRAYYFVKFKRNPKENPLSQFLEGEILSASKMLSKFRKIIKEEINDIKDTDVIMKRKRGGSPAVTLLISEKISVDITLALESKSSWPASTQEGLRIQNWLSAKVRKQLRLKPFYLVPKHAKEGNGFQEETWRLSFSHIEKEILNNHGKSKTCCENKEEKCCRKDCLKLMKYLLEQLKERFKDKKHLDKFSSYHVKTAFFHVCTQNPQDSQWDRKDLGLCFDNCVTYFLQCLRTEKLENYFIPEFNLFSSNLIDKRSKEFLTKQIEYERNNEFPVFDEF

[2] = tested on: pathway directly downstream of cGAS in cGAMP-stimulated THP1-Dual cells; assay: cGAMP stimulated counter cell assay (THP1(cGAMP) IC50): IFN induction in cGAMP-stimulated THP1-Dual cells; format: cell-based, human; conditions: Table 1; for IC50: Homo sapiens, THP1-Dual, cGAMP-stimulated THP1 cells, read-out: THP(cGAMP) IC50; for Ratio THP(cGAMP) IC50/ THP(vir) IC50: selectivity for cGAS inhibition
Description: 6.2 Method: Human cGAS Cell Assay and cGAMP Stimulated Counter Cell Assay (THP1(vir) IC50 and THP1(cGAMP) IC50)
THP1-Dual™ cells (InvivoGen #thpd-nfis) expressing IRF dependent Lucia luciferase reporter were used as basis for both assays. For the detection of cellular cGAS activity cells were stimulated by a baculovirus (pFastbac-1, Invitrogen, no coding insert) infection that delivers the cGAS enzyme stimulating double-stranded DNA (measurement of THP1(vir) IC50).
For the counter assay, cells were stimulated by cGAMP (SigmaAldrich #SML1232) to activate the identical pathway independent and directly downstream of cGAS (measurement of THP1(cGAMP) IC50). Pathway activity was monitored by measuring the Lucia luciferase activity induced by either DNA stimulated cGAS enzyme activity (measurement of THP1(vir) IC50) or by cGAMP directly (measurement of THP1(cGAMP) IC50, counter assay).
Compounds were delivered in 10 mM DMSO solution, serially diluted and transferred to the 384 well assay plate (Greiner #781201) using an Echo acoustic dispenser. Typically, 8 concentrations were used with the highest concentration at 10 μM in the final assay volume followed by ˜1:5 dilution steps. DMSO concentration was set to 1% in the final assay volume. The 384 well assay plate contained 21 test compounds (column 1-22), and DMSO in column 23 and 24.
Cells, cultivated according to manufacturer conditions, were harvested by centrifugation at 300 g/10 min and were then resuspended and diluted to 1.66E5 cells/ml in fresh cell culture medium (RPMI 1640 (Gibco #A10491-01), 10% FCS (Gibco #10500), 1× GlutaMax (Gibco #35050-061), 1× Pen/Strep solution (Gibco #15140-122), 100 μg/ml Normocin (InvivoGen #ant-nr), 100 μg/ml Zeocin (InvivoGen #ant-zn), 10 μg/ml Blasticidin S (Life Technologies #A11139-03)). The baculovirus solution was then added 1:200 (have varied according to virus batch) to the cells (measurement of THP1(vir) IC50). […] 30 μL of the cell/virus-mix were added to each well of the compound plate from column 1-23 via MultiDrop Combi dispenser (5000 cells/well). In column 24, 30 μl/5000 cells/well without virus were added as a low control.
The plates were then incubated for 18 h at 37° C. in a humidified incubator.
Following that, 15 μL of QuantiLuc detection reagent (InvivoGen #rep-qlcg5) were added to each well using a MultiDrop Combi. Measurement was done immediately after the addition using an EnVision reader (US-luminescence read-mode).
Data Evaluation and Calculation:
For data evaluation and calculation, the measurement of the low control was set as 0% control and the measurement of the high control was set as 100% control. The IC50 values were calculated using the standard 4 parameter logistic regression formula. Calculation: [y=(a−d)/(1+(x/c)^b)+d], a=low value, d=high value; x=conc M; c=IC50 M; b=slope

Human cGAS enzyme = Human cGAS enzyme (Homo sapiens (Human), UniProt Q8N884); assay: Human cGAS enzyme assay (hcGAS IC50, in vitro), cGAMP formation by RapidFire MS; format: biochemical; conditions: Table 1;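 further: recombinant human cGAS activated by 45 bp dsDNA with 30 µM each ATP and GTP, 90 min, cGAMP vs cyclic-di-GMP standard by MS, 8-point titration from 10 µM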
Chain of Human cGAS enzyme (Q8N884 whole entry): as above

[3] = target: cellular cGAS activity in baculovirus-stimulated THP1-Dual cells (Homo sapiens (Human), UniProt Q8N884); assay: Human cGAS cell assay (THP1(vir) IC50): IFN induction in virus-stimulated THP1-Dual cells, IRF Lucia luciferase reporter; format: cell-based; conditions: Table 1; virus-stimulated THP1 cells; read-out: THP(vir) IC50;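 further: Eight-point dilution series starting at 10 µM, 1% DMSO, 18 h at 37 °C, luminescence read-out, virus-free wells as 0% and DMSO-treated virus-stimulated wells as 100%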
Chain of cellular cGAS activity in baculovirus-stimulated THP1-Dual cells (Q8N884 whole entry): as above

Row | SMILES | IC50 [1] [nM] | IC50 (Human cGAS enzyme) [nM] | IC50 [3] [nM] | IC50 [2] [nM] | Ratio THP(cGAMP) IC50/ THP(vir) IC50 [2]
1 | C[C@H]1CN2CC[C@]1(F)c1cc(Cl)cnc1O[C@H]1C[C@@H](C(=O)O)N(C1)c1nc(nc3c1oc1ccccc13)C(F)(F)OCCCCC2=O [Example 15, (1R,9S,11S,34S)-4-chloro-1,25,25-trifluoro-34-methyl-31-oxo-8,15,26-trioxa-6,12,23,32,37-pentaazaheptacyclo[30.2.2.1^9,12.1^13,24.0^2,7.0^14,22.0^16,21]octatriaconta-2(7),3,5,13(37),14(22),16(21),17,19,23-nonaene-11-carboxylic acid] | 47 | 11 | 70 | 8200 | 117
2 | COc1ncccc1-c1cnc2c(c1)[C@@]1(F)CCN(C[C@@H]1C)C(=O)CCCOCCc1nc(c3oc4ccccc4c3n1)N1C[C@H](C[C@H]1C(=O)O)O2 [Example 20.01, (1R,9S,11S,34S)-1-fluoro-4-(2-methoxypyridin-3-yl)-34-methyl-31-oxo-8,15,27-trioxa-6,12,23,32,37-pentaazaheptacyclo[30.2.2.1^9,12.1^13,24.0^2,7.0^14,22.0^16,21]octatriaconta-2,4,6,13(37),14(22),16(21),17,19,23-nonaene-11-carboxylic acid] | 45 | 18 | 19 | 8100 | 419
3 | C[C@H]1CN2CC[C@]1(F)c1cc(-c3cnn(C)c3)cnc1O[C@H]1C[C@@H](C(=O)O)N(C1)c1nc(nc3c1oc1ccccc13)CCOCCCC2=O [Example 20.02] | 10 | 7 | 8 | 7900 | 946
4 | COc1cc(-c2cnc3c(c2)[C@@]2(F)CCN(C[C@@H]2C)C(=O)CCCOCCc2nc(c4oc5ccccc5c4n2)N2C[C@H](C[C@H]2C(=O)O)O3)c(F)cn1 [Example 20.03] | 38 | 18 | 18 | 5900 | 321
5 | C[C@H]1CN2CC[C@]1(F)c1cc(Cl)cnc1O[C@H]1C[C@@H](C(=O)O)N(C1)c1nc(nc3c1oc1ccccc13)C(F)(F)COCCCC2=O [Example 21, (1R,9S,11S,34S)-4-chloro-1,25,25-trifluoro-34-methyl-31-oxo-8,15,27-trioxa-6,12,23,32,37-penta-azaheptacyclo[30.2.2.1^9,12.1^13,24.0^2,7.0^14,22.0^16,21]octatriaconta-2,4,6,13(37),14(22),16(21),17,19,23-nonaene-11-carboxylic acid] | 7 | 5 | 3 | 10000 | 3281
6 | C[C@H]1CN2CC[C@]1(F)c1cc(Cl)cnc1O[C@H]1C[C@@H](C(=O)O)N(C1)c1nc(nc3c1oc1ccccc13)CCCCCOC2=O [Example 22, (1R,9S,11S,34S)-4-chloro-1-fluoro-34-methyl-31-oxo-8,15,30-trioxa-6,12,23,32,37-pentaaabestacyclo[30.2.2.1^9,12.1^13,24.0^2,7.0^14,22.0^16,21]octatriaconta-2,4,6,13(37),14(22),16(21),17,19,23-nonaene-11-carboxylic acid] | 1560 | 45 | 490 | > 10000 | 20
7 | C[C@H]1CN2CC[C@]1(F)c1cccnc1O[C@H]1C[C@@H](C(=O)O)N(C1)c1nc(nc3c1oc1ccccc13)CCCOCCC2=O [Example 24, (1R,9S,11S,34S)-1-fluoro-34-methyl-31-oxo-8,15,28-trioxa-6,12,23,32,37-pentaazaheptacyclo-[30.2.2.1^9,12.1^13,24.0^2,7.0^14,22.0^16,21]octatriaconta-2,4,6,13(37),14(22),16(21),17,19,23-nonaene-11-carboxylic acid] | 801 | 28 | 640 | > 10000 | 16

Continued, in another order:

Row | IC50 [1] [nM] | IC50 (Human cGAS enzyme) [nM] | IC50 [3] [nM] | SMILES | IC50 [2] [nM] | Ratio THP(cGAMP) IC50/ THP(vir) IC50 [2]
8 | 101 | 11 | 36 | C[C@H]1CN2CC[C@]1(F)c1cc(Cl)cnc1O[C@H]1C[C@@H](C(=O)O)N(C1)c1nc(nc3c1oc1ccccc13)CCOCCCC2=O [Example 16] | 6600 | 184
9 | 96 | 13 | 140 | C[C@H]1CN2CC[C@]1(F)c1cc(Br)cnc1O[C@H]1C[C@@H](C(=O)O)N(C1)c1nc(nc3c1oc1ccccc13)CCOCCCC2=O [Example 17] | 5600 | 40
10 | 18 | 6 | 35 | C#Cc1cnc2c(c1)[C@@]1(F)CCN(C[C@@H]1C)C(=O)CCCOCCc1nc(c3oc4ccccc4c3n1)N1C[C@H](C[C@H]1C(=O)O)O2 [Example 18, (1R,9S,11S,34S)-4-ethynyl-1-fluoro-34-methyl-31-oxo-8,15,27-trioxa-6,12,23,32,37-pentaazaheptacyclo[30.2.2.1^9,12.1^13,24.0^2,7.0^14,22.0^16,21]octatriaconta-2,4,6,13,16,18,20,22,24(37)-nonaene-11-carboxylic acid] | 4300 | 122
11 | 146 | 8 | 73 | CC(=O)c1cnc2c(c1)[C@@]1(F)CCN(C[C@@H]1C)C(=O)CCCOCCc1nc(c3oc4ccccc4c3n1)N1C[C@H](C[C@H]1C(=O)O)O2 [Example 19] | > 10000 | 136
12 | 114 | 12 | 69 | C[C@H]1CN2CC[C@]1(F)c1cc(Cl)cnc1O[C@H]1C[C@@H](C(=O)O)N(C1)c1nc(nc3c1oc1ccccc13)CCCOCCC2=O [Example 23, (1R,9S,11S,34S)-4-Chloro-1-fluoro-34-methyl-31-oxo-8,15,28-trioxa-6,12,23,32,37-pentaazabestacyclo[30.2.2.1^9,12.1^13,24.0^2,7.0^14,22.0^16,21]octatriaconta-2,4,6,13(37),14(22),16(21),17,19,23-nonaene-11-carboxylic acid] | 10000 | 148
13 | 116 | 7 | 110 | C[C@H]1COCCCc2nc(c3oc4ccccc4c3n2)N2C[C@H](C[C@H]2C(=O)O)Oc2ncc(Br)cc2[C@@]2(F)CCN(C[C@@H]2C)C1=O [Example 25] | 1700 | 16
14 | 276 | 18 | 46 | C[C@@H]1COCCCc2nc(c3oc4ccccc4c3n2)N2C[C@H](C[C@H]2C(=O)O)Oc2ncc(Br)cc2[C@@]2(F)CCN(C[C@@H]2C)C1=O [Example 26] | 3200 | 70
15 | 33 | 5 | 83 | C[C@H]1CN2CC[C@]1(F)c1cc(Cl)cnc1O[C@H]1C[C@@H](C(=O)O)N(C1)c1nc(nc3c1oc1ccccc13)CCCCOCC2=O [Example 27] | 1700 | 20
16 | 15 | 7 | 47 | C[C@H]1CN2CC[C@]1(F)c1cc(Br)cnc1O[C@H]1C[C@@H](C(=O)O)N(C1)c1nc(nc3c1oc1ccccc13)CCCCOCC2=O [Example 28] | 1900 | 39
